{
  "source": "patent US20090087378A1",
  "about": "“Positron Tomography Method and Positron-Emitting Compound to Be Used Therein” (NARD INSTITUTE, LTD., priority 2006, published 2009)",
  "assay_type_in_all_cases": "in vivo, rhesus monkey",
  "key": {"[1]": {"assay": "Test for determining the amount of uptake of positron-emitting source compound (PET of brain after intravenous injection)", "conditions": "for kinetics in the brain: rhesus monkey, intravenous, PET", "method": "A rhesus monkey (male, 5.5 kg in weight) was fasted overnight prior to the assay date. The monkey was seated on a monkey chair, and its head was fixed in a gantry of an animal PET camera (SHR-7700 manufactured by Hamamatsu Photonics K.K.) by a head positioner. Transmission measurement was performed for 30 minutes for […]. The injection products prepared in Production Examples 1-3 and 2 were then intravenously administered in doses of 77 ng/kg weight in terms of the amount of compound (Ia) and 230 ng/kg weight in terms of the amount of compound (Ib), respectively, and dynamic measurement was performed for 180 minutes. After the obtained images were reconstituted, a region of interest (ROI) was set in each part of the brain, and kinetics of radioactivity was determined in each region."}, "α4β2 nicotine receptor": {"test_system": "α4β2 nicotine receptor", "assay": "Test for selectivity to α7 nicotine receptor: PET brain uptake after pre-administration of α4β2-selective agonist A85380", "method": "(§1) After 30 minutes, compound (Ia) or (Ib) was administered by intravenous injection, and dynamic measurement was performed for 91 minutes. After the obtained images were reconstituted, a region of interest (ROI) was set in each part of the brain, and kinetics of radioactivity was determined in each region."}, "α7 nicotine receptor": {"biological_target": "T1, α7 nicotine receptor (Macaca mulatta, UniProt Q866A2)", "T1 construct": "from tissue; host or cells: brain of the living animal (in vivo PET)", "T1 sequence (Q866A2 23-502)": "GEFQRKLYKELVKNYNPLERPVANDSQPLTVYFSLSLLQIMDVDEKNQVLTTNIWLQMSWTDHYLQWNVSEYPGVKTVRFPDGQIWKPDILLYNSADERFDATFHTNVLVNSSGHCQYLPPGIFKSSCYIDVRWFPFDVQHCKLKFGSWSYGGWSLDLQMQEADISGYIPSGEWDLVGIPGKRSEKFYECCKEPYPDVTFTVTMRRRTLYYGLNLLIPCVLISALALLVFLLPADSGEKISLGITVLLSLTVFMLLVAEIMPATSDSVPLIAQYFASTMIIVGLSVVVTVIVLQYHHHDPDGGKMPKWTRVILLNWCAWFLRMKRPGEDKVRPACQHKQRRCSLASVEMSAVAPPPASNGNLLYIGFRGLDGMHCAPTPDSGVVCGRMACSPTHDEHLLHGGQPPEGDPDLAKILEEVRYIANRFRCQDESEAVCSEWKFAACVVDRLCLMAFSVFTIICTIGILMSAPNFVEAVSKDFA", "method": "as §1"}},
  "note": "Like-named read-outs stand apart in the source and are kept apart here.",
  "data": [
    {"smiles": "[11CH3]c1ccc(OC(=O)N2CCN3CCC2CC3)cc1", "note": "[Compound (Ia), 4-[^11C]methyl-phenyl 1,4-diazabicyclo[3.2.2]nonane-4-carboxylate]", "values": [
      {"measurement": "time of peak value of radioactivity, most/other parts of the brain", "setting": "[1]; after the administration, brain parts except hippocampus", "result": "about 10 minutes"},
      {"measurement": "time of peak value of radioactivity, hippocampus", "setting": "[1]; after the administration", "result": 30, "unit": "min"},
      {"measurement": "distribution of the concentrated compound in the brain", "setting": "[1]; integrated images 40 to 60 minutes after the administration", "result": "high in hippocampus, corpus striatum, thalamus, cingulate gyrus and cerebral cortex, but low in cerebellum"},
      {"measurement": "kinetics in the brain", "setting": "[1]", "result": "relatively fast"},
      {"measurement": "effect of pre-administered α4β2 nicotine receptor-selective agonist on uptake into each part of the brain", "setting": "α4β2 nicotine receptor; A85380 5 mg/kg i.v. 30 minutes before the compound", "result": "almost no effect"},
      {"measurement": "uptake into each part of the brain after pre-administered α7 nicotine receptor-selective agonist", "setting": "α7 nicotine receptor; SSR180711A 1 or 5 mg/kg i.v. 30 minutes before the compound, depending on the dose of the agonist", "result": "reduced to the level in the cerebellum"},
      {"measurement": "binding selectivity to α7 nicotine receptor", "setting": "α7 nicotine receptor; conclusion from blocking with SSR180711A and A85380", "result": "selective binding to α7 nicotine receptor"}
    ]},
    {"smiles": "O=C(Oc1ccc([76Br])cc1)N1CCN2CCC1CC2", "note": "[Compound (Ib), 4-[^76Br]bromophenyl 1,4-diazabicyclo[3.2.2]nonane-4-carboxylate]", "values": [
      {"measurement": "time of peak value of radioactivity, hippocampus", "setting": "[1]; after the administration", "result": 60, "unit": "min"},
      {"measurement": "amount of uptake in the brain", "setting": "[1]; compared with compound (Ia)", "result": "not as large as that of compound (Ia)"},
      {"measurement": "kinetics in the brain", "setting": "[1]", "result": "generally slow"},
      {"measurement": "effect of pre-administered α4β2 nicotine receptor-selective agonist on uptake into each part of the brain", "setting": "α4β2 nicotine receptor; rhesus monkey, in vivo", "result": "almost no effect"},
      {"measurement": "binding selectivity to α7 nicotine receptor", "setting": "α7 nicotine receptor; rhesus monkey, in vivo", "result": "selective binding to α7 nicotine receptor"},
      {"measurement": "uptake into each part of the brain after pre-administered α7 nicotine receptor-selective agonist", "setting": "α7 nicotine receptor; rhesus monkey, in vivo", "result": "reduced to the level in the cerebellum"}
    ]}
  ]
}
